Measurements taken from ChEMBL document CHEMBL1201862, “PubChem BioAssay data set” (2004).
Calls of active or inactive are those of the source.

Experiments:
[1] = biological target: Prothrombin (Homo sapiens, UniProt P00734); experiment: Thrombin 1536 HTS Dose Response Confirmation. [Related pubchem assays: 1046 (Thrombin 1536 HTS; hits were confirmed in this assay)]; format: functional
[2] = A549 cell cytotoxicity, dose response, cytotoxicity control, plate reader, cherry-pick, antagonist series (AID 743412); format: functional, cell-based
[3] = HepG2 cell cytotoxicity, dose response, cytotoxicity control, plate reader, cherry-pick, antagonist series (AID 743416); format: functional, cell-based
[4] = MC4R antagonists, dose response, counter-screen for LGR2 antagonist project, cell-based, plate reader, cherry pick (AID 743444); format: functional;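 further: transfected HEK 293 cells stimulated with alpha-MSH peptide; potency of inhibitors of the alpha-MSH evoked signal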
[5] = HEK293 cell cytotoxicity, dose response, cytotoxicity control, plate reader, cherry-picked samples (AID 743446); format: functional, cell-based
[6] = Luminescence Cell-Based Dose Confirmation HTS to Identify Activators of 5'UTR Stem-Loop Driven Alpha-Synuclein mRNA Translation in H4 Neuroglioblastoma Cells. [Related pubchem assays: 1829 (Project Summary), 1814 (Primary HTS)]; format: functional
[7] = Luminescence Cell-Based Dose Response HTS to Identify Activators of Luciferase Translation or Activity in H4 […] Cells. [Related pubchem assays: 1829 (Project Summary), 1814 (Primary HTS)]; format: functional
[8] = tested on: H4; experiment: Luminescence Cell-Based Dose Response HTS to Identify Activators of 5'UTR Stem-Loop Driven Prion Protein mRNA Translation in H4 Neuroglioblastoma Cells. [Related pubchem assays: 1829 (Project Summary), 1814 (Primary HTS)]; format: functional; settings: Homo sapiens
[9] = non-specific cell cytotoxicity, dose response, cytotoxicity control for PAX8 inhibitor project, plate reader, dry powder samples (AID 743021); format: functional, cell-based
[10] = ADAM10 inhibitors, peptide cleavage, dose response, biochemical, QFRET (AID 743254);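 further: ADAM10 enzyme with the DM2 quenched FRET peptide as substrate; EDANS fluorescence gain as the protease cuts the substrate; inhibitor potency against ADAM10 proteolytic activity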
[11] = biological target: E3 ubiquitin-protein ligase Mdm2 (Homo sapiens, UniProt Q00987); experiment: enhancers of MDM2-luciferase reporter signal, concentration-effect titration, project on inhibitors of MDM2 ubiquitin ligase, cellular assay, luminescent readout, 384-well plate format (AID 1394); format: functional;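 further: MDM2 E3 inhibitors raise luminescence so EC50 is for signal enhancement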
Chain of E3 ubiquitin-protein ligase Mdm2 (Q00987 whole entry): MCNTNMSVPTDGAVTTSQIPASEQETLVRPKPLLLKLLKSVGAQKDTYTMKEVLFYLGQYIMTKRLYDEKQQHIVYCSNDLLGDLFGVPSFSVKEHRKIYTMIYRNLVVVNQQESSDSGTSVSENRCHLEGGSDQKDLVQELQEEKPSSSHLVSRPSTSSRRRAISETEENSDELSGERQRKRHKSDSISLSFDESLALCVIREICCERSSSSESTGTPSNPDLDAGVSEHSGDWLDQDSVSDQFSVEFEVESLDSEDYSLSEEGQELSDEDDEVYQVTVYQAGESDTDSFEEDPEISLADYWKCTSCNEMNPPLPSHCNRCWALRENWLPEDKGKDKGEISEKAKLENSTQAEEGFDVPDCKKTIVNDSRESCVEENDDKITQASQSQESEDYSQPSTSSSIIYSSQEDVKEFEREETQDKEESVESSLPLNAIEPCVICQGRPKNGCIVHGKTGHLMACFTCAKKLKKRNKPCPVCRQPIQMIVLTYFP

[12] = tested on: BJ; experiment: cytotoxicity toward Ras-transformed BJeLR fibroblasts, dose response, cell-based, alamar blue fluorescence, cherrypicked samples (AID 2631); format: functional; settings: Homo sapiens;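 further: confirmatory dose-response assay in RAS-dependent BJ fibroblasts engineered with TERT, LT and ST, with cytotoxicity read by fluorescence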
[13] = Luminescence Cell-Based Dose Confirmation HTS to Identify Inhibitors of Polyadenylation.; format: functional
[14] = M. tuberculosis H37Rv growth inhibitors, H37Rv strain (AID 1626); format: functional
[15] = biological target: Luciferin 4-monooxygenase (Photinus pyralis, UniProt P08659); experiment: firefly luciferase enzyme inhibitors, dose response, biochemical, luminescence (AID 1891)
Chain of Luciferin 4-monooxygenase (P08659 whole entry): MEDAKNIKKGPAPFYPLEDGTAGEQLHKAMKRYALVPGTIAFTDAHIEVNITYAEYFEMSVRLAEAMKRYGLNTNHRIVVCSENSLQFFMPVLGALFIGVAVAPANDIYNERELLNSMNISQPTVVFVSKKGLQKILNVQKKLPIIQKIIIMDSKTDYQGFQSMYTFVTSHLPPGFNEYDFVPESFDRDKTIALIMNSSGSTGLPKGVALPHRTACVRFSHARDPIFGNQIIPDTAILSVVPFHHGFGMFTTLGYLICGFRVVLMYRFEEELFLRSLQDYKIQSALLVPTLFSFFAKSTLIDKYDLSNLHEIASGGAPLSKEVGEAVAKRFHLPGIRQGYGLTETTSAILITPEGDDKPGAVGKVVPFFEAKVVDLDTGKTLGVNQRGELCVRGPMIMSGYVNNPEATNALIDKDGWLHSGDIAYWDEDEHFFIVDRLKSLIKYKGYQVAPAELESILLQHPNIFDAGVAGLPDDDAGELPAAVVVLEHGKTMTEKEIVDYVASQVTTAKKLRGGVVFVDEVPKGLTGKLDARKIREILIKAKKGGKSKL

[16] = Luminescence Cell-Based Dose Confirmation HTS to Identify Inhibitors of Platelet Dense Granule Release. [Related pubchem assays: 1663 (Primary HTS), 1678 (Summary of Project)]; format: functional
[17] = Fluorescence Cell-Based Dose Response to Identify Inhibitors of Thrombin Receptor-Activating Peptide SFLLRN-Mediated P-Selectin Induction on Platelets. [Related pubchem assays: 1663 (Primary HTS), 1889 (retest at dose ), 1891 (counterscreen), 1678 (Project Summary)]; format: functional
[18] = biological target: Ephrin type-A receptor 4 (Mus musculus, UniProt Q03137); experiment: inhibitors of EphA4 binding to KYL peptide, primary screen, biochemical, colorimetric, mouse EphA4 (AID 689); format: functional
Chain of Ephrin type-A receptor 4 (Q03137 whole entry): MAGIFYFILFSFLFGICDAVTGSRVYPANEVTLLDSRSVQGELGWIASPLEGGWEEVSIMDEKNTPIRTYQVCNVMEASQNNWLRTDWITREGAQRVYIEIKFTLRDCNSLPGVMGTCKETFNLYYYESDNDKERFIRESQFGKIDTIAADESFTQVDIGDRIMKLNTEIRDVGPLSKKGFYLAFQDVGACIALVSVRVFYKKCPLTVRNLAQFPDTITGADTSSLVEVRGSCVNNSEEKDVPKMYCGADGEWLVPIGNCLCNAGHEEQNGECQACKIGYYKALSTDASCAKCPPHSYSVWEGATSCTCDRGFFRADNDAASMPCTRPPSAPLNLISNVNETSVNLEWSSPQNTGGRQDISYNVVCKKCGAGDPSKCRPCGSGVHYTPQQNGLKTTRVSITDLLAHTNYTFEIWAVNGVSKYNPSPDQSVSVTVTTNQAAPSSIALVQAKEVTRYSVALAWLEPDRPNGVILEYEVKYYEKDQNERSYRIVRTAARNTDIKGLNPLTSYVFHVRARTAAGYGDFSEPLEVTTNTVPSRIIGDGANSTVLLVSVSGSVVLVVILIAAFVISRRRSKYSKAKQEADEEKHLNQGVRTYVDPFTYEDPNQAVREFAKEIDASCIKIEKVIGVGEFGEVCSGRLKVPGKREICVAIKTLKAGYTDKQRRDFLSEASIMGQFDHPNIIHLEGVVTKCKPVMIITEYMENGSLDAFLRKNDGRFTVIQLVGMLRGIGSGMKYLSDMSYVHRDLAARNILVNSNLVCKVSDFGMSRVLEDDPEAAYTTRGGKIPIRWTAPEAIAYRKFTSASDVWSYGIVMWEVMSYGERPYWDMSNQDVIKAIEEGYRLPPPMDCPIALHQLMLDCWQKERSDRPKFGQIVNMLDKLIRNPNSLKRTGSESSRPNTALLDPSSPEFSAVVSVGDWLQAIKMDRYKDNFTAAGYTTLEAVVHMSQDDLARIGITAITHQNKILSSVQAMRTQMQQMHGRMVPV

[19] = THP-1 cell cytotoxicity, dose response, cytotoxicity control for Vif-APOBEC3G degradation inhibitor project, THP-1 cells (AID 1117359); format: functional; settings: Human immunodeficiency virus 1, THP-1
[20] = Luminescence-based cell-based high throughput dose response assay to identify activators of the DAF-12 from the parasite S. stercoralis (ssDAF-12).; format: functional
[21] = cells
[22] = inhibitors of PGC1a acetylation in cells, dose response, cell-based, cherry-picked samples (AID 720514); format: functional;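 further: potency may reflect raised or lowered acetylation signal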
[23] = biological target: T1, Protein skinhead-1 (Caenorhabditis elegans, UniProt P34707); format: functional
T1 sequence (P34707 whole entry): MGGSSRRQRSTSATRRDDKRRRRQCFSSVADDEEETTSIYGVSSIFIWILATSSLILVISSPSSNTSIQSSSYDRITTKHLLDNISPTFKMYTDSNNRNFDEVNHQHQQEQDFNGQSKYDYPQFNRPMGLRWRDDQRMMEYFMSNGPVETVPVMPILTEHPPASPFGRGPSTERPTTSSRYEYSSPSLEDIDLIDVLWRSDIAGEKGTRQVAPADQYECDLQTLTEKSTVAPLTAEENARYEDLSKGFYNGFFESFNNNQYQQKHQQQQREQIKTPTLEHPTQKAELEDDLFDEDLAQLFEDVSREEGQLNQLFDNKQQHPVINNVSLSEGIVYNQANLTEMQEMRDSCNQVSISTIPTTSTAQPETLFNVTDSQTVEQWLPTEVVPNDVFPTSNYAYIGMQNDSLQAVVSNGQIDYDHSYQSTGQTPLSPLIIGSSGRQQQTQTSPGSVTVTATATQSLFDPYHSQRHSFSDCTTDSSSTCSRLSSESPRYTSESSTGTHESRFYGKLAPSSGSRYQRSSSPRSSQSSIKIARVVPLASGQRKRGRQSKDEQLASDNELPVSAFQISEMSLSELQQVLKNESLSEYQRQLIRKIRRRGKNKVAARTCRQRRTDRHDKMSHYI

[24] = biological target: T2, Oxysterols receptor LXR-beta (Homo sapiens, UniProt P55055); experiment: LXR agonists, Gal4 luciferase reporter, dose response, counter-screen for ssDAF-12 agonist project, cell-based, luminescence, HEK293, S. stercoralis campaign (AID 720737); format: functional; settings: read-out: IC50 (the source's name)
T2 sequence (P55055 whole entry): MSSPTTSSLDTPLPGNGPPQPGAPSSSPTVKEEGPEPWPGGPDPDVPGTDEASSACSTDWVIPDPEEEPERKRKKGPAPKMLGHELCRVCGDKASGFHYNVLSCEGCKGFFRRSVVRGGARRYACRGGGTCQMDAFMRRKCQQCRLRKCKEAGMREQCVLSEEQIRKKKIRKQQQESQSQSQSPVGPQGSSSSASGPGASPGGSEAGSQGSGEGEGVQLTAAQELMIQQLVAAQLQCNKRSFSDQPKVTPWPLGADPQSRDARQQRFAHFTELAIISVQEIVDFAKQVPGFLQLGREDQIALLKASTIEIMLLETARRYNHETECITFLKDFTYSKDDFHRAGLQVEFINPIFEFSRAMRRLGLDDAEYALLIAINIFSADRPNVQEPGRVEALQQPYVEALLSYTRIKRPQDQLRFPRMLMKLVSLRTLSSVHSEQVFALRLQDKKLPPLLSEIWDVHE

[25] = biological target: T2, Oxysterols receptor LXR-beta; format: functional, cell-based

Cc1ccc2c(c1)C1CN(C)CCC1N2C(=O)c1cn(-c2ccccc2)nc1-c1ccccc1 (configuration not stated)
IC50 [1]: 3.04 µM (active) | AC50 [2]: 36.4 µM (active) | AC50 [3]: > 52 µM (inactive) | AC50 [4]: 55.6 µM (active) | AC50 [5]: 35.3 µM (active)

O=C(CSc1ncccc1-c1nc2ccccc2[nH]1)N1CCc2ccccc21
EC50 [6]: 15.1 µM (active) | EC50 [7]: 4.81 µM (active) | EC50 [8]: 21.1 µM (inconclusive) | AC50 [9]: 59.9 µM (active)

Oc1nc2ccccc2n1C1CCN(C(c2ccccc2OC(F)(F)F)c2nnnn2-c2ccc3c(c2)OCCO3)CC1 (configuration not stated)
IC50 [10]: > 69.5 µM (inactive) | AC50 [9]: 37.1 µM (active)

CCc1c(C)c(C#N)c2nc3ccccc3n2c1Cl
EC50 [11]: 9.98 µM (not active) | EC50 [12]: 0.443 µM (inconclusive)

COC(=O)c1cc(C(=O)N2CCN(c3cccc(C)c3C)CC2)cc([N+](=O)[O-])c1
EC50 [13]: > 120 µM (not active)

CC(=O)Nc1ccc(NC(=O)c2ccc(C3SCC(=O)N3CCc3ccccc3)cc2)cc1 (configuration not stated)
IC50 [14]: > 100 µM (active)

COc1ccccc1-n1cc(-c2ccc(Cl)cc2)nc1O
EC50 [15]: > 112 µM (not active) | EC50 [16]: 1.89 µM (active) | EC50 [17]: < 0.3 µM (active)

CCOC(=O)C1=C(C)N=c2s/c(=C/c3ccco3)c(=O)n2C1c1cccc(OC)c1 (configuration not stated)
IC50 [18]: > 100 µM (not active) | CC50 [19]: > 40 µM (active)

N=C(NOC(=O)c1ccccc1Cl)c1ccccc1
IC50 [20]: > 67.6 µM (inactive) | EC50 [21]: > 67.6 µM (inactive)

Cn1c(=O)c(C(=O)NNC(=O)c2ccccc2Cl)c(O)c2ccccc21
EC50 [13]: > 120 µM (not active)

O=C(/C=C/c1ccc(N2CCCCC2)c([N+](=O)[O-])c1)c1ccc(O)cc1
AC50 [22]: 28.1 µM (active)

COc1cccc(-c2nc(-c3cccs3)no2)c1
EC50 [15]: > 112 µM (not active) | EC50 [16]: > 112 µM (not active) | IC50 [23]: > 100 µM (inactive) | IC50 [20]: > 67.6 µM (inactive) | EC50 [24]: > 67.6 µM (inactive) | EC50 [25]: > 67.6 µM (inactive) | EC50 [21]: > 67.6 µM (inactive)

C[C@H](CO)N1C[C@H](C)[C@@H](CN(C)Cc2cccnc2)Oc2cc(C#CC3CCCCC3)ccc2S1(=O)=O
AC50 [22]: 6.45 µM (active)
